Species: Rattus norvegicus
Experiment: DrugMatrix - Regimen: Daily Repeat
Format: toxicity, organism-based, Sprague-Dawley
Parameters: regimen Daily Repeat, gender Male, age 6-8 weeks
Conditions: in vivo, po, route oral GAVAGE, vehicle .5 % CMC; for ABSOLUTE BASOPHIL / ABSOLUTE EOSINOPHIL / ABSOLUTE LYMPHOCYTE / ABSOLUTE MONOCYTE / ABSOLUTE SEGMENTED NEUTROPHIL / BASOPHIL / EOSINOPHIL / ERYTHROCYTE COUNT / HEMATOCRIT / HEMOGLOBIN / LEUKOCYTE COUNT / LYMPHOCYTE / MEAN CORPUSCULAR HEMOGLOBIN / MEAN CORPUSCULAR VOLUME / MONOCYTE / NEUTROPHIL / NUCLEATED RED BLOOD CELLS / PLATELET COUNT: tissue Blood; for ALANINE AMINOTRANSFERASE / ALBUMIN / ALKALINE PHOSPHATASE / ASPARTATE AMINOTRANSFERASE / BLOOD UREA NITROGEN / CARBON DIOXIDE / CHLORIDE / CHOLESTEROL / CREATINE PHOSPHOKINASE / CREATININE / GLUCOSE / LACTATE DEHYDROGENASE / LIPASE / PHOSPHORUS / POTASSIUM / SODIUM / TOTAL BILIRUBIN / TOTAL PROTEIN / URIC ACID: tissue Plasma
[1] = 68 mg/kg, 72 h, dose level Low, time 3 day
[2] = 68 mg/kg, 120 h, dose level Low, time 5 day
[3] = 750 mg/kg, 72 h, dose level High, time 3 day
[4] = 750 mg/kg, 120 h, dose level High, time 5 day

`C(=C\c1ccccc1)/CN1CCN(C(c2ccccc2)c2ccccc2)CC1` [CINNARIZINE] was tested, and the “ABSOLUTE BASOPHIL” value [1] was 0 CELLS/uL, the “ABSOLUTE EOSINOPHIL” value [1] was 0 CELLS/uL and the “ABSOLUTE LYMPHOCYTE” value [1] was 14250 CELLS/uL. For the same molecule, the “ABSOLUTE MONOCYTE” value [1] was 268.67 CELLS/uL, the “ABSOLUTE SEGMENTED NEUTROPHIL” value [1] was 1614.67 CELLS/uL and the BASOPHIL [1] was 0%. The EOSINOPHIL [1] was 0%, the “ERYTHROCYTE COUNT” value [1] was 5.37 x10E6/uL and the HEMATOCRIT [1] was 33.93%. For the same molecule, the HEMOGLOBIN [1] was 12.87 G/DL, the “LEUKOCYTE COUNT” value [1] was 16.13 x10E3/uL and the LYMPHOCYTE [1] was 88.33%. The “MEAN CORPUSCULAR HEMOGLOBIN” value [1] was 24 pg, the “MEAN CORPUSCULAR VOLUME” value [1] was 63.2 fL and the MONOCYTE [1] was 1.67%. For the same molecule, the NEUTROPHIL [1] was 10%, the “NUCLEATED RED BLOOD CELLS” value [1] was 0 /100WBC and the “PLATELET COUNT” value [1] was 1225 x10E3/uL. The “ALANINE AMINOTRANSFERASE” value [1] was 45.33 u/L, the ALBUMIN [1] was 4.37 G/DL and the “ALKALINE PHOSPHATASE” value [1] was 323 u/L. The “ASPARTATE AMINOTRANSFERASE” value [1] was 68.67 u/L, the “BLOOD UREA NITROGEN” value [1] was 15.33 mg/dL and the “CARBON DIOXIDE” value [1] was 24.33 mmol/L. For the same molecule, the CHLORIDE [1] was 102 MEQ/L, the CHOLESTEROL [1] was 67.33 mg/dL and the “CREATINE PHOSPHOKINASE” value [1] was 220.67 u/L. For the same molecule, the CREATININE [1] was 0.17 mg/dL, the GLUCOSE [1] was 136.33 mg/dL and the “LACTATE DEHYDROGENASE” value [1] was 186 u/L. It also gave an LIPASE [1] of 9 u/L, a PHOSPHORUS [1] of 11.57 mg/dL and a POTASSIUM [1] of 6.72 MEQ/L. The SODIUM [1] was 145.13 MEQ/L, the “TOTAL BILIRUBIN” value [1] was 0.2 mg/dL and the “TOTAL PROTEIN” value [1] was 5.33 G/DL. For the same molecule, the “URIC ACID” value [1] was 1.7 mg/dL, the “ABSOLUTE BASOPHIL” value [2] was 0 CELLS/uL and the “ABSOLUTE EOSINOPHIL” value [2] was 62.67 CELLS/uL. The “ABSOLUTE LYMPHOCYTE” value [2] was 17347 CELLS/uL, the “ABSOLUTE MONOCYTE” value [2] was 686 CELLS/uL and the “ABSOLUTE SEGMENTED NEUTROPHIL” value [2] was 2204.33 CELLS/uL. The BASOPHIL [2] was 0%, the EOSINOPHIL [2] was 0.33% and the “ERYTHROCYTE COUNT” value [2] was 5.91 x10E6/uL. For the same molecule, the HEMATOCRIT [2] was 36.67%, the HEMOGLOBIN [2] was 13.63 G/DL and the “LEUKOCYTE COUNT” value [2] was 20.3 x10E3/uL. The LYMPHOCYTE [2] was 85.33%, the “MEAN CORPUSCULAR HEMOGLOBIN” value [2] was 23.13 pg and the “MEAN CORPUSCULAR VOLUME” value [2] was 62.13 fL. For the same molecule, the MONOCYTE [2] was 3.33%, the NEUTROPHIL [2] was 11% and the “NUCLEATED RED BLOOD CELLS” value [2] was 0 /100WBC. For the same molecule, the “PLATELET COUNT” value [2] was 1382.33 x10E3/uL, the “ALANINE AMINOTRANSFERASE” value [2] was 44 u/L and the ALBUMIN [2] was 4.3 G/DL. The “ALKALINE PHOSPHATASE” value [2] was 307 u/L, the “ASPARTATE AMINOTRANSFERASE” value [2] was 78.33 u/L and the “BLOOD UREA NITROGEN” value [2] was 21.67 mg/dL. For the same molecule, the “CARBON DIOXIDE” value [2] was 26 mmol/L, the CHLORIDE [2] was 107.33 MEQ/L and the CHOLESTEROL [2] was 53.33 mg/dL. For the same molecule, the “CREATINE PHOSPHOKINASE” value [2] was 288.33 u/L, the CREATININE [2] was 0.19 mg/dL and the GLUCOSE [2] was 133 mg/dL. The “LACTATE DEHYDROGENASE” value [2] was 263 u/L, the LIPASE [2] was 8.67 u/L and the PHOSPHORUS [2] was 11.3 mg/dL. For the same molecule, the POTASSIUM [2] was 6.89 MEQ/L, the SODIUM [2] was 145.37 MEQ/L and the “TOTAL BILIRUBIN” value [2] was 0.17 mg/dL. For the same molecule, the “TOTAL PROTEIN” value [2] was 6.13 G/DL, the “URIC ACID” value [2] was 1.5 mg/dL and the “ABSOLUTE BASOPHIL” value [3] was 0 CELLS/uL. For the same molecule, the “ABSOLUTE EOSINOPHIL” value [3] was 121.67 CELLS/uL, the “ABSOLUTE LYMPHOCYTE” value [3] was 10962.67 CELLS/uL and the “ABSOLUTE MONOCYTE” value [3] was 242 CELLS/uL. The “ABSOLUTE SEGMENTED NEUTROPHIL” value [3] was 773.67 CELLS/uL, the BASOPHIL [3] was 0% and the EOSINOPHIL [3] was 1%. For the same molecule, the “ERYTHROCYTE COUNT” value [3] was 6.6 x10E6/uL, the HEMATOCRIT [3] was 41.67% and the HEMOGLOBIN [3] was 15.33 G/DL. For the same molecule, the “LEUKOCYTE COUNT” value [3] was 12.1 x10E3/uL, the LYMPHOCYTE [3] was 90.67% and the “MEAN CORPUSCULAR HEMOGLOBIN” value [3] was 23.23 pg. The “MEAN CORPUSCULAR VOLUME” value [3] was 63.07 fL, the MONOCYTE [3] was 2% and the NEUTROPHIL [3] was 6.33%. For the same molecule, the “NUCLEATED RED BLOOD CELLS” value [3] was 0 /100WBC, the “PLATELET COUNT” value [3] was 1456.67 x10E3/uL and the “ALANINE AMINOTRANSFERASE” value [3] was 52.33 u/L. For the same molecule, the ALBUMIN [3] was 4.3 G/DL, the “ALKALINE PHOSPHATASE” value [3] was 423.33 u/L and the “ASPARTATE AMINOTRANSFERASE” value [3] was 79.33 u/L. The “BLOOD UREA NITROGEN” value [3] was 19 mg/dL, the “CARBON DIOXIDE” value [3] was 26.67 mmol/L and the CHLORIDE [3] was 99.33 MEQ/L. For the same molecule, the CHOLESTEROL [3] was 58.67 mg/dL, the “CREATINE PHOSPHOKINASE” value [3] was 294.67 u/L and the CREATININE [3] was 0.19 mg/dL. For the same molecule, the GLUCOSE [3] was 138 mg/dL, the “LACTATE DEHYDROGENASE” value [3] was 240.67 u/L and the LIPASE [3] was 10 u/L. It also gave a PHOSPHORUS [3] of 11.73 mg/dL, a POTASSIUM [3] of 6.79 MEQ/L and an SODIUM [3] of 141.93 MEQ/L. The “TOTAL BILIRUBIN” value [3] was 0.17 mg/dL, the “TOTAL PROTEIN” value [3] was 6.1 G/DL and the “URIC ACID” value [3] was 1.8 mg/dL. For the same molecule, the “ABSOLUTE BASOPHIL” value [4] was 0 CELLS/uL, the “ABSOLUTE EOSINOPHIL” value [4] was 0 CELLS/uL and the “ABSOLUTE LYMPHOCYTE” value [4] was 10935.67 CELLS/uL. For the same molecule, the “ABSOLUTE MONOCYTE” value [4] was 287 CELLS/uL, the “ABSOLUTE SEGMENTED NEUTROPHIL” value [4] was 1277.33 CELLS/uL and the BASOPHIL [4] was 0%. The EOSINOPHIL [4] was 0%, the “ERYTHROCYTE COUNT” value [4] was 6.35 x10E6/uL and the HEMATOCRIT [4] was 38.33%. The HEMOGLOBIN [4] was 14.23 G/DL, the “LEUKOCYTE COUNT” value [4] was 12.5 x10E3/uL and the LYMPHOCYTE [4] was 87.67%. The “MEAN CORPUSCULAR HEMOGLOBIN” value [4] was 22.4 pg, the “MEAN CORPUSCULAR VOLUME” value [4] was 60.4 fL and the MONOCYTE [4] was 2.33%. The NEUTROPHIL [4] was 10%, the “NUCLEATED RED BLOOD CELLS” value [4] was 0 /100WBC and the “PLATELET COUNT” value [4] was 1123.67 x10E3/uL. The “ALANINE AMINOTRANSFERASE” value [4] was 56 u/L, the ALBUMIN [4] was 4.1 G/DL and the “ALKALINE PHOSPHATASE” value [4] was 361.67 u/L. For the same molecule, the “ASPARTATE AMINOTRANSFERASE” value [4] was 78.67 u/L, the “BLOOD UREA NITROGEN” value [4] was 17.67 mg/dL and the “CARBON DIOXIDE” value [4] was 27 mmol/L. The CHLORIDE [4] was 103.67 MEQ/L, the CHOLESTEROL [4] was 72.33 mg/dL and the “CREATINE PHOSPHOKINASE” value [4] was 366.67 u/L. The CREATININE [4] was 0.16 mg/dL, the GLUCOSE [4] was 155.33 mg/dL and the “LACTATE DEHYDROGENASE” value [4] was 194.67 u/L. The LIPASE [4] was 10 u/L, the PHOSPHORUS [4] was 12.9 mg/dL and the POTASSIUM [4] was 7.06 MEQ/L. The SODIUM [4] was 147.1 MEQ/L, the “TOTAL BILIRUBIN” value [4] was 0.17 mg/dL and the “TOTAL PROTEIN” value [4] was 5.9 G/DL. For the same molecule, the “URIC ACID” value [4] was 2 mg/dL.
